For one test, the target named is T1, SSAO/VAP-1 (Rattus norvegicus, UniProt O08590).
T1 construct: from tissue; host or cells: rat plasma, brain, retina, small intestine, lung, liver, kidney
T1 sequence (O08590 1-763): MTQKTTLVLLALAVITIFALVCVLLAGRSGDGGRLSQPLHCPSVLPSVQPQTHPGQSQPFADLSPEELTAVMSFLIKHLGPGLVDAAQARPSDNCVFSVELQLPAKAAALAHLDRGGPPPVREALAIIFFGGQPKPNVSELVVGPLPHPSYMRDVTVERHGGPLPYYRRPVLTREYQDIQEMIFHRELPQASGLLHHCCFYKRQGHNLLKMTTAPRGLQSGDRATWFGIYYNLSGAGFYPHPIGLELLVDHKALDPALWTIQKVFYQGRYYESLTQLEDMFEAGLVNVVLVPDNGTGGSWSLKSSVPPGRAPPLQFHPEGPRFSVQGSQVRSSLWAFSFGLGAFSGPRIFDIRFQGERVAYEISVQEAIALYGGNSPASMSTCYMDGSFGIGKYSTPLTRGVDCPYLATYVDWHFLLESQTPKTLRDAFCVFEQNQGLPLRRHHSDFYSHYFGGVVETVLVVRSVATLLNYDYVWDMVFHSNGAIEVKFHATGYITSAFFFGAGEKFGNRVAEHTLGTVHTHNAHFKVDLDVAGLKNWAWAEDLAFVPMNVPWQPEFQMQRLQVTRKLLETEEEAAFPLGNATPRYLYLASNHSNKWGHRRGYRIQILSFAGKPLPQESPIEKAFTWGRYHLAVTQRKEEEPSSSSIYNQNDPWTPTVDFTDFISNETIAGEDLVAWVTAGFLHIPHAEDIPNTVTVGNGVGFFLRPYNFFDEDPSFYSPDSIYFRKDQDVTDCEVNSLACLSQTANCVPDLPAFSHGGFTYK
Put plainly: Inhibitory activity on SSAO/VAP-1 in animal tissues after oral administration. It is filed as in vivo. The note with it: 24 hours post single administration, mean ± SEM. As for the experimental part:
MAO-Glo Assay kit (Promega, V1402) was used to determine the activity of SSAO in animal tissues. After test compounds were adminstered to the animal, SSAO enzyme activity was calculated by measuring the activity of the monoamine oxidases in the animal tissue homogenate that was insensitive to MAO inhibitors Clogyline and Pargyline. The compounds were orally administered to rats at different doses, and same volume of vehicle was orally administered to control animals. Animal plasma, brain, retina, small intestine, lung, liver, and kidney were respectively collected 24 hours after administration (the animals were perfused with PBS before the collection of small intestine, lung, liver, and kidney) and stored in a −80° C. refrigerator until analysis. Each tissue was homogenized in tissue homogenate lysis buffer (20 mM HEPES, pH 7.4, 150 mM NaCl, 1 mM EDTA, 1 mM EGTA, 1% Triton X-100 and 1× Roche Complete protease inhibitor tablet). The homogenate was centrifuged at 12000 rpm at 4° C. for 30 minutes to remove tissue fragments. 5 μL of supernatant and 2 μL of mixture of Clogyline (10 μM) and Pargyline (10 μM) were incubated for 10 minutes at room temperature. Then 2 μL of substrate from MAO-Glo assay kit was added to the mixture, and reacted at room temperature for 60 minutes. Detection reagents were added to quench the reaction according to instructions. The fluorescein data was read by Biotek Neo2. The activity of monoamine oxidase in tissues that is not sensitive to MAO inhibitors was used to represent the activity of SSAO. Percentage of SSAO activity in administered animals was compared with that of control animals to calculate the compound inhibition rate.

The target of a further test is T2, rat SSAO protein (Rattus norvegicus, UniProt O08590).
T2 construct: Eli Lilly (provided, not a catalogue product)
T2 sequence (O08590 1-763): T1 sequence (O08590 1-763)
Put plainly: In vitro inhibitory activity on SSAO/VAP-1 (MAO-Glo assay), rat. The format is biochemical. The procedure: This assay was used to evaluate the in vitro inhibitory activity of the compounds on SSAO/VAP-1 of different species. Recombinant human SSAO protein, mouse SSAO protein or rat SSAO protein (provided by Eli Lilly) were used. The enzyme activity detection kit, MAO-Glo Assay kit (V1402) was purchased from Promega. Enzyme reaction buffer (50 mM HEPES, 120 mM NaCl, 5 mM KCl, 2 mM CaCl2, 1.4 mM MgCl2, 0.001% Tween-20, pH7.4) was prepared. The test compound was dissolved in DMSO and diluted by 3-fold concentration in gradient. The final concentration of test compound in a 10 μL reaction system was 1 μM to 0.05 nM when SSAO was detected. The content of DMSO in the detection reaction was 1%. After the solution of test compound in DMSO was diluted in the enzyme reaction buffer at a volume ratio of 1:25, 2.5 μL of which was added to each well of detection plate, two replicates for each concentration. 5 μL of SSAO protein diluted in the enzyme reaction buffer was added to each well, the final concentration of which was 10 nM to 80 nM in 10 μL reaction system. The mixture was incubated at room temperature for 10 minutes. 2.5 μL of the reaction substrate diluted in the enzyme reaction buffer was added to each well, the final concentration of which was 10 μM in 10 μL reaction system. After the mixture was reacted at room temperature for 120 minutes, 10 μL of detection reagent was added to each well. The reaction solution was incubated for 20 minutes at room temperature, and the plate was read with Synergy Neo 2 for detection. The value was converted into inhibition rate by the following formula: Inhibition rate=(Signalpositive−Signaltest)/(Signalpositive−Signalnegative)×100%
Signalpositive was positive control without test compound. Signalnegative was negative control without test compound and SSAO enzyme, and Signaltest was detection value of each compound at different concentrations. IC50 value was calculated by using 4 parameter curve fitting.

Where [1] appears, read: brain, read-out: remaining SSAO activity percentage (SSAO activity %), Brain.
Where [2] appears, read: plasma, read-out: remaining SSAO activity percentage (SSAO activity %), Plasma.
Where [3] appears, read: retina, read-out: remaining SSAO activity percentage (SSAO activity %), Retina.

This note sets out measurements from patent publication US12258336B2, “Preparation of seimicarbazide-sensitive amine oxidase inhibitor and use thereof” (SHANGHAI ENNOVABIO PHARMACEUTICALS CO., LTD., priority 2018, dated 2025).

Where two headings read alike, the source gives them in different places.

Turning to `COC1CC2CC1CN2c1ncc(OC/C(=C/F)CN)cn1` (stereo not shown) [Example 2], the remaining activity at 0.6 mg/kg at SSAO/VAP-1 (setting [1]) came to 49.1 ± 21.2%; at SSAO/VAP-1 (setting [2]) it was 24.3 ± 5.2%; on SSAO/VAP-1 (setting [3]), 28.7 ± 8.5%. Moreover, the IC50 at rat SSAO protein was under 100 nM.

As to `NC/C(=C\F)COc1cnc(N2CCC3(CC2)COC3)nc1` [Example 3], the remaining activity at 1 mg/kg on SSAO/VAP-1 (setting [1]) was 55.6 ± 10.5%; on SSAO/VAP-1 (setting [2]), 15.2 ± 2.6%; at SSAO/VAP-1 (setting [3]), 8.9 ± 3.2%.

For the molecule `CC1(C)CN(c2ncc(OC/C(=C/F)CN)cn2)CCN1C1COC1` [Example 10], the remaining activity at 0.6 mg/kg on SSAO/VAP-1 (setting [1]) was 27.3 ± 1.8%; at SSAO/VAP-1 (setting [2]), 5.8 ± 2.1%; at SSAO/VAP-1 (setting [3]), 8 ± 0.8%.
